Measurements from US7611853B2, “Assay to screen for anti-malarials” (priority 2002, dated 2009).

Legend:
[1] = test system: Plasmodium falciparum; test: Growth inhibitory effect of GA on synchronous parasites (Giemsa-stained smears); format: cell-based
Description: In order to check if GA could inhibit Plasmodium falciparum growth in vitro, we prepared highly synchronous ring-infected parasites using 5% sorbitol. These ring-staged parasites were suspended in RPMI to make 5% hematocrit. […] This correlates with elevated expression of Pfhsp90 in the trophozoite stage compared to ring stage.

[2] = test system: Plasmodium falciparum ring-infected erythrocytes; test: Anti-malarial effect of GA and HA on overall parasitemia (giemsa staining); format: cell-based
Experimental: To show the effects of GA on overall parasitemia, ring-infected erythrocytes were either treated with DMSO or with 5 μM GA for 48 hrs (culture was replenished with medium and GA every 24 hrs) and parasitemia was calculated by giemsa staining. While the mock-treated parasites multiplied at the end of 48 hrs, parasitemia was reduced to 50 percent in GA treated cultures by 48 hrs.

Compound | inhibition at 10 µM ([1]; Plasmodium falciparum, GA added in the trophozoite stage, 10 μM) [%] | concentration of maximal growth inhibition ([1]; ring-staged parasites, 24 h) [µM] | parasitemia reduced to ([2]; ring-infected erythrocytes, 5 μM, 48 hrs, replenished every 24 hrs) [%] | anti-malarial effect (summary statement) [2] | concentration of maximal reduction in parasitemia ([2]; 0.5, 1, 5 and 10 μM tested, 48 hrs) [µM]
COC1=C2C[C@@H](C)C[C@H](OC)[C@H](O)[C@@H](C)/C=C(\C)[C@H](OC(N)=O)[C@@H](OC)/C=C\C=C(/C)C(=O)NC(=CC1=O)C2=O [GA, Geldanamycin] | 100 | 5 | 50 | – | –
CO[C@H]1[C@@H](OC)C[C@H](C)[C@@H](OC)C2=CC(=O)C=C(NC(=O)/C(C)=C/C=C\[C@H](OC)[C@@H](OC(N)=O)/C(C)=C/[C@@H]1C)C2=O [HA, Herbimycin A] | – | – | – | kill the malarial parasite at the stage of early trophozoite development | 10
